Test results published in paper PMC3049593 (British Journal of Cancer, 2011).

Legend:
Hep3b2.1-7 tumours = experiment: orthotopic Hep3b2.1-7 human liver cancer model; assay type: in vivo, mice
Protocol: (§1) In the orthotopic Hep3b2.1-7 human liver cancer model, treatment of mice (n=10) began 14 days after inoculation of 2.5 × 10^6 cells. […] To initiate tumour xenografts, MDA-MB-231, PC3, Cal27 and HepG2 cells were injected s.c. into nude mice (n=8) at 4, 5, 2 and 2 × 10^7 cells ml^−1, respectively. […] In the B16F0 lung metastasis model, 2 × 10^5 cells were injected via the tail vein of C57Bl6 mice (n=8). […] Surface lung macrometastases were counted for each group (n=9) upon study termination. In the intrasplenic HT-29 xenograft model, 1 × 10^6 cells in 100 μl were injected into the spleen. […] Solid tumours were measured in two dimensions (length and width) and the tumour volume (cm^3) was calculated using the equation: V=length × width^2 × π/6. The anti-tumour activity was expressed as percent tumour growth inhibition (%TGI). Further details are available in Supplementary Methods. […]
In the Hep3b2.1-7 model, the cells resuspended in HBSS:MatrigelTM (1:1, v/v) to a final concentration of 5 x 10^8 cells/mL were inoculated following an incision into the skin directly over the liver to expose the main lobe of the liver. The needle was introduced into the main lobe of the liver, where 2.5 x 106 Hep3b2.1-7 cells (in 5 µL with 50% Matrigel) were discharged. The treatment of mice began 24 days after inoculation of the […]
either a once or twice weekly dosing schedule (see figure legends for dose schedules in each study) for up to three weeks. […]
efficacy/PK study) using either a once or twice weekly dosing schedule (see figure legends for dose schedules in each study) for up to three weeks. […]
In relevant models, solid tumours were measured in two dimensions (length and width) and the tumour volume (mm3) calculated using the equation V = length × width2 × π/6.The anti-tumour activity was assessed by the comparison of the mean tumour volume of the treated groups to the mean tumour volume of the control group and expressed as the percent Tumour Growth Inhibition (TGI) using the equation:
%TGI = (1-((VendPG545 - VstartPG545) / (VendControl - VstartControl)))*100 VendPG545 = Ending Tumour Volume of PG545-treated animal
VstartPG545 = Starting Tumour Volume of PG545-treated animal
VendControl = Ending Tumour Volume of Control animal
VstartControl = Starting Tumour Volume of Control animal […]
After collection, 0.2 mL of […]
whole blood was added to a glass scintillation vial to which 1 mL Solvable was added.
Samples were incubated for one hour at 55-60°C. 0.1 mL of 0.1 M EDTA-di-sodium salt solution and 0.3 mL to 0.5 mL of 30% hydrogen peroxide in 0.1 mL aliquots were added to the sample. Samples were gently agitated between additions to allow reaction foaming to subside. Samples were incubated for 30 minutes at room temperature. […]

[1] = body weight loss in tumour-bearing mice; assay type: in vivo; conditions: for body weight loss at the end of the study: MDA-MB-231 model
PC3 tumours = experiment: PC3 prostate xenograft model; assay type: in vivo, nude mice
Protocol: as §1
(§2) antibody. […]
(§3) staining. For quantification, three independent visual fields (20x magnification) were chosen and positive stained spots or vessels with identifiable lumen were counted.
(§4) Angiogenesis inhibition and induction were calculated using the equations: […]
(§5) regimen both before and after tumour cell inoculation (days -6, -3, 0, +3, +6) or only after tumour cell inoculation (days 0, +3, +6). B16 cell (2x105) were inoculated via tail vein injections and mice were culled and assessed for lung metastases on day 12. […]

HepG2 tumours = experiment: HepG2 liver xenograft model; assay type: in vivo, nude mice
Protocol: as §1, §2, §3, §4, §5

B16 = experiment: in vitro cytotoxicity (LC50); assay type: cell-based; conditions: read-out: LC50 (concentration lethal to 50% of cells)
B16F0 lung metastases = experiment: B16F0 experimental lung metastasis model; assay type: in vivo, C57Bl6 mice; conditions: 20 mg kg^−1
Protocol: as §1, §2, §3, §4, §5

[2] = toxicity / toxicology studies; assay type: in vivo

CC(C)CCC[C@@H](C)[C@H]1CCC2C3CCC4C[C@@H](O[C@@H]5O[C@H](COS(=O)(=O)[O-])[C@@H](O[C@H]6O[C@H](COS(=O)(=O)[O-])[C@@H](O[C@H]7O[C@H](COS(=O)(=O)[O-])[C@@H](O[C@H]8O[C@H](COS(=O)(=O)[O-])[C@@H](OS(=O)(=O)[O-])[C@H](OS(=O)(=O)[O-])[C@H]8OS(=O)(=O)[O-])[C@H](OS(=O)(=O)[O-])[C@H]7OS(=O)(=O)[O-])[C@H](OS(=O)(=O)[O-])[C@H]6OS(=O)(=O)[O-])[C@H](OS(=O)(=O)[O-])[C@H]5OS(=O)(=O)[O-])CC[C@]4(C)C3CC[C@@]21C.[Na+].[Na+].[Na+].[Na+].[Na+].[Na+].[Na+].[Na+].[Na+].[Na+].[Na+].[Na+].[Na+] (some centres unmarked) [PG545]
TGI (Hep3b2.1-7 tumours; 20 mg kg^−1 loading dose then 10 mg kg^−1 twice-weekly): 55% | TGI (Hep3b2.1-7 tumours; 20 mg kg^−1 twice-weekly s.c.): 52% | TGI (Hep3b2.1-7 tumours; once-weekly 20 mg kg^−1 followed by 10 mg kg^−1): 65% | body weight loss nadir ([1]; B16 model): 8% | body weight loss nadir ([1]; HT-29 model): 12% | body weight loss ([1]; Hep3b2.1-7 model, 20 mg kg^−1 followed by twice-weekly 10 mg kg^−1): 4% | body weight loss ([1]; Hep3b2.1-7 model, 20 mg kg^−1 twice-weekly): 9% | body weight nadir (loss) ([1]; LL/2 model): 5% | body weight loss at the end of the study ([1]; 20 mg kg^−1 once-weekly): 4% | body weight loss at the end of the study ([1]; 20 mg kg^−1 twice-weekly): 6% | body weight loss at the end of the study ([1]; 30 mg kg^−1 once-weekly): 11% | body weight loss at the end of the study ([1]; 30 mg kg^−1 twice-weekly): 10% | body weight loss ([1]; PC3 model, 20 mg kg^−1 once-weekly): 6% | body weight loss ([1]; PC3 model, 20 mg kg^−1 twice-weekly): 16% | TGI (PC3 tumours; 20 mg kg^−1 once-weekly s.c.): 74% | TGI (PC3 tumours; 20 mg kg^−1 twice-weekly s.c.): 83% | TGI (HepG2 tumours; 20 mg kg^−1 once-weekly s.c.): 55% | TGI (HepG2 tumours; 20 mg kg^−1 twice-weekly s.c.): 45% | CC50 (B16): > 200 µM | TGI (lung metastases) (B16F0 lung metastases; days 0, +3, +6): 62% | TGI (lung metastases) (B16F0 lung metastases; days −6, −3, 0, +3, +6): 99% | activated partial thromboplastin time ([2]; high doses, toxicology studies, reversible (data not shown)): increased activated partial thromboplastin time | body weight loss in other species ([2]; toxicity studies (data not shown)): did not lead to significant body weight loss
